Experimental data from paper PMC5267425, “Identification of small molecule modulators of HIV-1 Tat and Rev protein accumulation” (Retrovirology, 2017).
“And” between values parts separate entries of the source, which are not always exact repeats. Equal values may be shown once.

Test system: cellular gene expression in HeLa rtTA HIV∆Mls cells

Cc1cc(NCc2cccnc2)n2ncc(-c3ccc(Cl)cc3)c2n1 [Compound 791, 3-(4-chlorophenyl)-5-methyl-N-(3-pyridinylmethyl)pyrazolo[1,5-a]pyrimidin-7-amine]
LYSMD1 expression level (gene LYSMD1, 9147791-treated cells, two replicates): 6.83 and 7.15 | MAP3K12 expression level (gene MAP3K12, 9147791-treated cells, two replicates): 10.58 and 11.11 | MBD6 expression level (gene MBD6, 9147791-treated cells, two replicates): 19.55 and 19.21 | MBLAC2 expression level (gene MBLAC2, 9147791-treated cells, two replicates): 3.53 and 3.60 | MED1 expression level (gene MED1, 9147791-treated cells, two replicates): 16.72 and 17.76 | MKKS expression level (gene MKKS, 9147791-treated cells, two replicates): 33.76 and 31.64 | MLKL expression level (gene MLKL, 9147791-treated cells, two replicates): 8.65 and 8.80 | MORC2 expression level (gene MORC2, 9147791-treated cells, two replicates): 14.30 and 13.93 | MRPL1 expression level (gene MRPL1, 9147791-treated cells, two replicates): 13.37 and 12.84 | MRPS16 expression level (gene MRPS16, 9147791-treated cells, two replicates): 56.39 and 57.78 | MRPS18B expression level (gene MRPS18B, 9147791-treated cells, two replicates): 84.33 and 82.56 | MSL1 expression level (gene MSL1, 9147791-treated cells, two replicates): 19.35 and 20.08 | MTIF2 expression level (gene MTIF2, 9147791-treated cells, two replicates): 23.18 and 24.37 | MXI1 expression level (gene MXI1, 9147791-treated cells, two replicates): 11.96 and 11.72 | MYSM1 expression level (gene MYSM1, 9147791-treated cells, two replicates): 6.50 and 6.96 | NADK expression level (gene NADK, 9147791-treated cells, two replicates): 51.36 and 49.09 | NFX1 expression level (gene NFX1, 9147791-treated cells, two replicates): 16.88 and 17.47 | NHLRC2 expression level (gene NHLRC2, 9147791-treated cells, two replicates): 5.90 and 6.13 | NR2C1 expression level (gene NR2C1, 9147791-treated cells, two replicates): 12.80 and 13.28 | NSMAF expression level (gene NSMAF, 9147791-treated cells, two replicates): 20.81 and 21.54 | NT5DC3 expression level (gene NT5DC3, 9147791-treated cells, two replicates): 2.73 and 2.69 | NUFIP2 expression level (gene NUFIP2, 9147791-treated cells, two replicates): 18.50 and 18.17 | OSMR expression level (gene OSMR, 9147791-treated cells, two replicates): 33.63 and 36.47 | OTUD6B expression level (gene OTUD6B, 9147791-treated cells, two replicates): 9.61 and 9.84 | PATL1 expression level (gene PATL1, 9147791-treated cells, two replicates): 30.78 and 31.35 | PEX19 expression level (gene PEX19, 9147791-treated cells, two replicates): 25.90 and 26.36 | PHF1 expression level (gene PHF1, 9147791-treated cells, two replicates): 27.67 and 28.09 | PIP4K2C expression level (gene PIP4K2C, 9147791-treated cells, two replicates): 17.91 and 18.93 | PLD3 expression level (gene PLD3, 9147791-treated cells, two replicates): 114.37 and 115.61 | PLD6 expression level (gene PLD6, 9147791-treated cells, two replicates): 4.96 and 5.07 | PLEKHG4 expression level (gene PLEKHG4, 9147791-treated cells, two replicates): 9.09 and 8.55 | PLRG1 expression level (gene PLRG1, 9147791-treated cells, two replicates): 18.77 and 17.99 | PNPO expression level (gene PNPO, 9147791-treated cells, two replicates): 12.32 and 11.96 | POLR1B expression level (gene POLR1B, 9147791-treated cells, two replicates): 13.48 and 13.61 | PORCN expression level (gene PORCN, 9147791-treated cells, two replicates): 8.43 and 8.53 | PPIE expression level (gene PPIE, 9147791-treated cells, two replicates): 36.69 and 37.52 | PPPDE1 expression level (gene PPPDE1, 9147791-treated cells, two replicates): 25.65 and 26.33 | PPPDE2 expression level (gene PPPDE2, 9147791-treated cells, two replicates): 24.63 and 25.91 | PRDX5 expression level (gene PRDX5, 9147791-treated cells, two replicates): 527.71 and 539.87 | PRKAB1 expression level (gene PRKAB1, 9147791-treated cells, two replicates): 9.24 and 9.53 | PRKAB2 expression level (gene PRKAB2, 9147791-treated cells, two replicates): 9.63 and 9.56 | PRKAG2 expression level (gene PRKAG2, 9147791-treated cells, two replicates): 4.40 and 4.65 | PRPF38B expression level (gene PRPF38B, 9147791-treated cells, two replicates): 24.17 and 23.91 | RAD23A expression level (gene RAD23A, 9147791-treated cells, two replicates): 139.22 and 133.17 | RAD51C expression level (gene RAD51C, 9147791-treated cells, two replicates): 25.11 and 27.22 | RBM18 expression level (gene RBM18, 9147791-treated cells, two replicates): 22.42 and 23.14 | RDH14 expression level (gene RDH14, 9147791-treated cells, two replicates): 13.62 and 14.25 | REPS1 expression level (gene REPS1, 9147791-treated cells, two replicates): 11.08 and 11.40 | RETSAT expression level (gene RETSAT, 9147791-treated cells, two replicates): 39.84 and 41.20 | RFNG expression level (gene RFNG, 9147791-treated cells, two replicates): 19.96 and 19.40 | RILPL1 expression level (gene RILPL1, 9147791-treated cells, two replicates): 8.85 and 9.19 | RIPK2 expression level (gene RIPK2, 9147791-treated cells, two replicates): 9.51 and 9.78 | RNF135 expression level (gene RNF135, 9147791-treated cells, two replicates): 6.73 and 6.55 | RNF139 expression level (gene RNF139, 9147791-treated cells, two replicates): 14.33 and 14.56 | RNF146 expression level (gene RNF146, 9147791-treated cells, two replicates): 8.67 and 9.36 | RNF212 expression level (gene RNF212, 9147791-treated cells, two replicates): 23.40 and 24.53 | RPRD1A expression level (gene RPRD1A, 9147791-treated cells, two replicates): 17.67 and 18.23 | RPUSD3 expression level (gene RPUSD3, 9147791-treated cells, two replicates): 51.54 and 51.13 | RTTN expression level (gene RTTN, 9147791-treated cells, two replicates): 5.05 and 5.18 | RUNDC1 expression level (gene RUNDC1, 9147791-treated cells, two replicates): 7.46 and 7.03 | SDCCAG3 expression level (gene SDCCAG3, 9147791-treated cells, two replicates): 69.16 and 66.70 | SENP1 expression level (gene SENP1, 9147791-treated cells, two replicates): 10.13 and 10.39 | SENP5 expression level (gene SENP5, 9147791-treated cells, two replicates): 9.14 and 9.80 | SIKE1 expression level (gene SIKE1, 9147791-treated cells, two replicates): 10.16 and 10.46 | SLC26A11 expression level (gene SLC26A11, 9147791-treated cells, two replicates): 7.10 and 7.46 | SLC35B3 expression level (gene SLC35B3, 9147791-treated cells, two replicates): 9.59 and 9.09 | SLC38A6 expression level (gene SLC38A6, 9147791-treated cells, two replicates): 8.14 and 8.35 | SLC39A6 expression level (gene SLC39A6, 9147791-treated cells, two replicates): 55.62 and 53.39 | SMEK2 expression level (gene SMEK2, 9147791-treated cells, two replicates): 22.28 and 23.17 | SQSTM1 expression level (gene SQSTM1, 9147791-treated cells, two replicates): 402.87 and 398.40 | ST6GALNAC4 expression level (gene ST6GALNAC4, 9147791-treated cells, two replicates): 39.60 and 40.55 | ST7L expression level (gene ST7L, 9147791-treated cells, two replicates): 3.77 and 3.85 | STAMBP expression level (gene STAMBP, 9147791-treated cells, two replicates): 26.17 and 25.95 | STK24 expression level (gene STK24, 9147791-treated cells, two replicates): 98.53 and 99.63 | STK36 expression level (gene STK36, 9147791-treated cells, two replicates): 5.44 and 5.78 | STK40 expression level (gene STK40, 9147791-treated cells, two replicates): 6.18 and 6.16 | STX4 expression level (gene STX4, 9147791-treated cells, two replicates): 45.64 and 43.00 | TBCCD1 expression level (gene TBCCD1, 9147791-treated cells, two replicates): 7.66 and 8.12 | TGDS expression level (gene TGDS, 9147791-treated cells, two replicates): 10.85 and 10.65 | TIGD2 expression level (gene TIGD2, 9147791-treated cells, two replicates): 10.77 and 11.51 | TMEM33 expression level (gene TMEM33, 9147791-treated cells, two replicates): 13.53 and 12.82 | TMEM68 expression level (gene TMEM68, 9147791-treated cells, two replicates): 5.74 and 5.79 | TMEM120B expression level (gene TMEM120B, 9147791-treated cells, two replicates): 7.48 and 7.87 | TMEM126B expression level (gene TMEM126B, 9147791-treated cells, two replicates): 51.64 and 47.99 | TMEM134 expression level (gene TMEM134, 9147791-treated cells, two replicates): 16.44 and 17.07 | TMEM167B expression level (gene TMEM167B, 9147791-treated cells, two replicates): 13.61 and 13.31 | TRIM38 expression level (gene TRIM38, 9147791-treated cells, two replicates): 6.07 and 6.47 | TRMT2A expression level (gene TRMT2A, 9147791-treated cells, two replicates): 11.24 and 11.68 | TRNT1 expression level (gene TRNT1, 9147791-treated cells, two replicates): 14.44 and 15.17 | TTC9C expression level (gene TTC9C, 9147791-treated cells, two replicates): 44.37 and 45.86 | USP3 expression level (gene USP3, 9147791-treated cells, two replicates): 15.95 and 16.26 | USP45 expression level (gene USP45, 9147791-treated cells, two replicates): 4.03 and 4.15 | VHL expression level (gene VHL, 9147791-treated cells, two replicates): 23.74 and 22.96 | WDR73 expression level (gene WDR73, 9147791-treated cells, two replicates): 10.95 and 11.17 | XPO5 expression level (gene XPO5, 9147791-treated cells, two replicates): 32.34 and 33.37 | ZBED5 expression level (gene ZBED5, 9147791-treated cells, two replicates): 26.69 and 27.18 | ZBTB26 expression level (gene ZBTB26, 9147791-treated cells, two replicates): 10.25 and 9.99 | ZBTB34 expression level (gene ZBTB34, 9147791-treated cells, two replicates): 4.78 and 4.42 | ZCCHC4 expression level (gene ZCCHC4, 9147791-treated cells, two replicates): 6.80 and 6.69 | ZCCHC8 expression level (gene ZCCHC8, 9147791-treated cells, two replicates): 17.17 and 17.82 | ZCCHC9 expression level (gene ZCCHC9, 9147791-treated cells, two replicates): 6.71 and 6.52 | ZFP30 expression level (gene ZFP30, 9147791-treated cells, two replicates): 3.88 and 3.75 | ZFP36L2 expression level (gene ZFP36L2, 9147791-treated cells, two replicates): 6.55 and 6.96 | ZFP64 expression level (gene ZFP64, 9147791-treated cells, two replicates): 11.62 and 11.15 | ZFYVE27 expression level (gene ZFYVE27, 9147791-treated cells, two replicates): 15.03 and 14.85 | ZNF12 expression level (gene ZNF12, 9147791-treated cells, two replicates): 10.78 and 10.46 | ZNF91 expression level (gene ZNF91, 9147791-treated cells, two replicates): 4.92 and 4.68 | ZNF133 expression level (gene ZNF133, 9147791-treated cells, two replicates): 7.16 and 7.05 | ZNF184 expression level (gene ZNF184, 9147791-treated cells, two replicates): 6.52 and 6.31 | ZNF193 expression level (gene ZNF193, 9147791-treated cells, two replicates): 10.85 | ZNF195 expression level (gene ZNF195, 9147791-treated cells, two replicates): 11.04 and 10.45 | ZNF319 expression level (gene ZNF319, 9147791-treated cells, two replicates): 3.69 and 3.71 | ZNF320 expression level (gene ZNF320, 9147791-treated cells, two replicates): 11.36 and 12.30 | ZNF354A expression level (gene ZNF354A, 9147791-treated cells, two replicates): 9.92 and 9.13 | ZNF445 expression level (gene ZNF445, 9147791-treated cells, two replicates): 5.75 and 5.83 | ZNF566 expression level (gene ZNF566, 9147791-treated cells, two replicates): 3.15 and 2.91 | ZNF619 expression level (gene ZNF619, 9147791-treated cells, two replicates): 2.16 and 1.99 | ZNF664 expression level (gene ZNF664, 9147791-treated cells, two replicates): 57.01 and 56.94 | ZNF700 expression level (gene ZNF700, 9147791-treated cells, two replicates): 10.30 and 10.08 | ZNF706 expression level (gene ZNF706, 9147791-treated cells, two replicates): 34.34 and 36.65 | ZNF764 expression level (gene ZNF764, 9147791-treated cells, two replicates): 5.35 and 5.20 | ZNF780B expression level (gene ZNF780B, 9147791-treated cells, two replicates): 4.74 and 4.46 | ZNF800 expression level (gene ZNF800, 9147791-treated cells, two replicates): 6.37 and 6.62 | ZRSR2 expression level (gene ZRSR2, 9147791-treated cells, two replicates): 34.69 and 32.80 | ZSWIM7 expression level (gene ZSWIM7, 9147791-treated cells, two replicates): 4.48 and 4.71 | genes with changes of <fivefold in expression (of ~10,000 genes detected): 85 | genes with changes of <tenfold in expression (of ~10,000 genes detected): 4
